# From PubChem BioAssay (NCI)
#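 How tested: cells in 96-well plates exposed to compound for 48 hours at five concentrations. TGI denotes the concentration required for complete inhibition of growth.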
# What was measured:
# Assay in all cases: inhibition of tumour cell growth, NCI panel, 48 h
# [1] = tested on: UACC-257 melanoma
# [2] = tested on: NCI/ADR-RES ovarian
# [3] = tested on: UO-31 renal
# [4] = tested on: SNB-75 CNS
# [5] = tested on: ACHN renal
# [6] = tested on: HT29 colon
# [7] = tested on: RPMI-8226 leukemia
# [8] = tested on: CCRF-CEM leukemia
# [9] = tested on: SK-MEL-28 melanoma
# [10] = tested on: HCC-2998 colon
# [11] = tested on: HL-60(TB) leukemia
# [12] = tested on: SN12C renal
# [13] = tested on: NCI-H23 lung
# [14] = tested on: A498 renal
# [15] = tested on: MOLT-4 leukemia
# [16] = tested on: SR leukemia
# [17] = tested on: COLO 205 colon
# [18] = tested on: SF-268 CNS
# [19] = tested on: RXF 393 renal
# [20] = tested on: 786-0 renal
# [21] = tested on: MDA-N
# [22] = tested on: U251 CNS
# [23] = tested on: SNB-19 CNS
# [24] = tested on: HCT-15 colon
# [25] = tested on: K-562 leukemia
# [26] = tested on: PC-3 prostate
# [27] = tested on: OVCAR-5 ovarian
# [28] = tested on: SF-539 CNS
# [29] = tested on: LOX IMVI melanoma
# [30] = tested on: SK-MEL-2 melanoma
# [31] = tested on: HCT-116 colon
# [32] = tested on: SK-OV-3 ovarian
# [33] = tested on: SF-295 CNS
# [34] = tested on: MDA-MB-435
# [35] = tested on: IGROV1 ovarian
# [36] = tested on: KM12 colon
# [37] = tested on: TK-10 renal
# [38] = tested on: A549 NSCLC
# [39] = tested on: T-47D breast
# [40] = tested on: MCF7 breast
# [41] = tested on: NCI-H226 lung
# [42] = tested on: HOP-92 NSCLC
# [43] = tested on: SK-MEL-5 melanoma
# [44] = tested on: CAKI-1 renal
# [45] = tested on: DU-145 prostate
# [46] = tested on: NCI-H522 lung
# [47] = tested on: OVCAR-4 ovarian
# [48] = tested on: UACC-62 melanoma
# [49] = tested on: EKVX NSCLC
# [50] = tested on: MDA-MB-231 breast
# [51] = tested on: M14 melanoma
# [52] = tested on: OVCAR-3 ovarian
# [53] = tested on: HOP-62 NSCLC
# [54] = tested on: SW-620 colon
# [55] = tested on: BT-549 breast
# [56] = tested on: OVCAR-8 ovarian
# [57] = tested on: HS 578T breast
# [58] = tested on: NCI-H460 lung
structure (smiles),measurement,setting,value
CCOC(=O)C(O)(NC(=O)NC(O)(C(=O)OCC)C(F)(F)F)C(F)(F)F (centres undefined),TGI,[1],> 100 µM
same,TGI,[2],> 100 µM
same,TGI,[3],> 100 µM
same,TGI,[4],> 100 µM
same,TGI,[5],> 100 µM
same,TGI,[6],> 100 µM
same,TGI,[7],> 100 µM
same,TGI,[8],> 100 µM
same,TGI,[9],> 100 µM
same,TGI,[10],> 100 µM
same,TGI,[11],> 100 µM
same,TGI,[12],> 100 µM
same,TGI,[13],> 100 µM
same,TGI,[14],> 100 µM
same,TGI,[15],> 100 µM
same,TGI,[16],> 100 µM
same,TGI,[17],> 100 µM
same,TGI,[18],> 100 µM
same,TGI,[19],> 100 µM
same,TGI,[20],> 100 µM
same,TGI,[21],> 100 µM
same,TGI,[22],> 100 µM
same,TGI,[23],> 100 µM
same,TGI,[24],> 100 µM
same,TGI,[25],> 100 µM
same,TGI,[26],> 100 µM
same,TGI,[27],> 100 µM
same,TGI,[28],> 100 µM
same,TGI,[29],> 100 µM
same,TGI,[30],> 100 µM
same,TGI,[31],> 100 µM
same,TGI,[32],> 100 µM
O=C1c2ccccc2-c2nc(/C=C/c3ccccc3)cc3c2c1nc1ccccc13,TGI,[33],> 100 µM
same,TGI,[1],> 100 µM
same,TGI,[34],26.9 µM
same,TGI,[35],> 100 µM
same,TGI,[2],> 100 µM
same,TGI,[36],68.4 µM
same,TGI,[3],> 100 µM
same,TGI,[4],47.7 µM
same,TGI,[5],> 100 µM
same,TGI,[37],> 100 µM
same,TGI,[38],> 100 µM
same,TGI,[6],92 µM
same,TGI,[7],> 100 µM
same,TGI,[8],> 100 µM
same,TGI,[39],> 100 µM
same,TGI,[9],44.6 µM
same,TGI,[10],64.6 µM
same,TGI,[40],> 100 µM
same,TGI,[12],> 100 µM
same,TGI,[13],28.9 µM
same,TGI,[41],> 100 µM
same,TGI,[14],> 100 µM
same,TGI,[15],> 100 µM
same,TGI,[42],> 100 µM
same,TGI,[43],8.8 µM
same,TGI,[16],50.6 µM
same,TGI,[44],> 100 µM
same,TGI,[45],> 100 µM
same,TGI,[17],69.8 µM
same,TGI,[18],> 100 µM
same,TGI,[46],30.2 µM
same,TGI,[47],> 100 µM
same,TGI,[48],25.7 µM
same,TGI,[49],> 100 µM
same,TGI,[50],74 µM
same,TGI,[19],> 100 µM
same,TGI,[20],> 100 µM
same,TGI,[51],> 100 µM
same,TGI,[52],3.95 µM
same,TGI,[22],57 µM
same,TGI,[53],76.3 µM
same,TGI,[23],> 100 µM
same,TGI,[24],40.8 µM
same,TGI,[25],32.2 µM
same,TGI,[26],> 100 µM
same,TGI,[27],> 100 µM
same,TGI,[28],> 100 µM
same,TGI,[54],85.6 µM
same,TGI,[55],> 100 µM
same,TGI,[56],> 100 µM
same,TGI,[57],62.6 µM
same,TGI,[30],> 100 µM
same,TGI,[31],> 100 µM
same,TGI,[32],> 100 µM
CC(Cc1ccccc1)NC1=NCCO1 (centres undefined),TGI,[33],> 100 µM
same,TGI,[58],36.6 µM
same,TGI,[35],> 100 µM
same,TGI,[3],50.4 µM
same,TGI,[4],> 100 µM
same,TGI,[5],> 100 µM
same,TGI,[38],> 100 µM
same,TGI,[6],40.3 µM
same,TGI,[7],67.3 µM
same,TGI,[39],> 100 µM
same,TGI,[10],71 µM
same,TGI,[40],> 100 µM
same,TGI,[12],53.3 µM
same,TGI,[13],51 µM
same,TGI,[41],> 100 µM
same,TGI,[14],85.5 µM
same,TGI,[15],77.9 µM
same,TGI,[42],69.1 µM
same,TGI,[43],> 100 µM
same,TGI,[16],63.5 µM
same,TGI,[44],> 100 µM
same,TGI,[17],34.5 µM
same,TGI,[46],> 100 µM
same,TGI,[47],> 100 µM
same,TGI,[48],> 100 µM
same,TGI,[49],> 100 µM
same,TGI,[50],30.1 µM
same,TGI,[19],> 100 µM
same,TGI,[21],72.3 µM
same,TGI,[22],58 µM
same,TGI,[53],> 100 µM
same,TGI,[23],> 100 µM
same,TGI,[24],> 100 µM
same,TGI,[26],> 100 µM
same,TGI,[27],> 100 µM
same,TGI,[28],30.3 µM
same,TGI,[54],> 100 µM
same,TGI,[56],> 100 µM
same,TGI,[29],34.9 µM
same,TGI,[57],> 100 µM
same,TGI,[30],> 100 µM
same,TGI,[31],32.4 µM
same,TGI,[32],> 100 µM
